PMC4424837, “Toxin acidic residue evolutionary function-guided design of de novo peptide drugs for the immunotherapeutic target, the Kv1.3 channel” (Scientific Reports, 2015)
Positions of bridges follow the written chain, without caps; N, C: chain ends. Residues, ends and D or L forms follow the SMILES beside them. No end group written: not given here.

What was measured:
Kv1.3 channel = molecular target: T1, Kv1.3 channel (Mus musculus, UniProt P16390); test: Patch-clamp whole-cell recording of Kv1.3 channel currents in transfected HEK293 cells; type: cell-based; settings: for Reduction of the affinity of BmKTX-196 for the Kv1.3 channel: alanyl mutants of BmKTX-196
T1 construct: expressed in transfected cells; host or cells: HEK293 cells
Method: (§1) The cDNAs encoding mouse Kv1.1, human Kv1.2, mouse Kv1.3, human Kv7.1, human Kv11.1, human KCa3.1, human KCa2.2 and human KCa2.3 were subcloned into the Xho I and Bam HI sites of pIRES2-EGFP, a bicistronic expression vector (Clontech, USA) for coexpression with enhanced GFP.
(§2) Electrophysiological experiments were carried out using patch-clamp whole-cell recording as described previously[10][23][27][38]. HEK293 cells were transfected with appropriate cDNA plasmids using the SofastTM Transfection Reagent (Sunma). Potassium currents were recorded 1 to 3 days after transfection and positive cells were selected based on the presence of GFP fluorescence. Electrophysiological experiments were carried out at 22–25°C using patch-clamp whole-cell recording. Data analyses were performed with IgorPro (WaveMetrics, Lake Oswego, OR), and IC50 values were deduced by fitting a modified Hill equation to the data, Itoxin/Icontrol = 1/1 + ([toxin peptide]/IC50), where I is the peak current to the normalized data points obtained with at least five different toxin peptide concentrations. The results are mainly shown as the mean ± S.E, with n representing the number of experiments.

Kv11.1 = test: Patch-clamp whole-cell recording of Kv11.1 channel currents in transfected HEK293 cells; type: cell-based, human; settings: 1 μM peptide, compared with Kv1.3
Method: as §1, §2

T1 sequence (P16390 whole entry): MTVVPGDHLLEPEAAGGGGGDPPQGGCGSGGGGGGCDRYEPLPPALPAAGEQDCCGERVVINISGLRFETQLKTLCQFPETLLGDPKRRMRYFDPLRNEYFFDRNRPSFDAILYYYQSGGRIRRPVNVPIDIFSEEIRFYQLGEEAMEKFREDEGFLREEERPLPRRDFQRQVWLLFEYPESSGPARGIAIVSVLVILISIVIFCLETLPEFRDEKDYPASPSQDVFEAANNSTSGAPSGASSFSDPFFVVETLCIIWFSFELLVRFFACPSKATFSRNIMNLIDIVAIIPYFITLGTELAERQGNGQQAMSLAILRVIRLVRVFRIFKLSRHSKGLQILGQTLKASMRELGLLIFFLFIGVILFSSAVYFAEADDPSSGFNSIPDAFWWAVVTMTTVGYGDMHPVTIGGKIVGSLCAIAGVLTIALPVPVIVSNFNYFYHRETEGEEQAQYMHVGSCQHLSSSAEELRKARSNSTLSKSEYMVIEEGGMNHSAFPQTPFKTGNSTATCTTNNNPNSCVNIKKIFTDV

CC[C@H](C)[C@H](NC(=O)CNC(=O)[C@@H](N)C(C)C)C(=O)N[C@@H](CC(N)=O)C(=O)N[C@H](C(=O)N[C@@H](CC(=O)O)C(=O)N[C@H]1CSSC[C@@H]2NC(=O)[C@H](CCCCN)NC(=O)CNC(=O)[C@H](Cc3ccccc3)NC(=O)[C@H](CCCNC(=N)N)NC(=O)[C@H](CCSC)NC(=O)CNC(=O)[C@H](C)NC(=O)[C@H](CCCCN)NC(=O)[C@H](CCCCN)NC(=O)[C@@H]3CSSC[C@@H](C(=O)N[C@H](C(=O)N4CCC[C@H]4C(=O)N[C@@H](CCCCN)C(=O)O)[C@@H](C)O)NC(=O)[C@H](CC(=O)O)NC(=O)[C@H](CSSC[C@H](NC(=O)[C@H](CCC(N)=O)NC(=O)CNC(=O)[C@H](CO)NC(=O)[C@H](Cc4c[nH]cn4)NC(=O)[C@H](CCCCN)NC1=O)C(=O)N[C@@H](CC(C)C)C(=O)N[C@@H](CCCCN)C(=O)N1CCC[C@H]1C(=O)N3)NC(=O)[C@H](CCCCN)NC(=O)CNC(=O)[C@H](CC(N)=O)NC(=O)[C@H]([C@@H](C)CC)NC2=O)C(C)C [BmKTX-196] (H-VGINVDCKHSGQCLKPCKKAGMRFGKCINGKCDCTPK-OH; disulfide 7-27, 13-32, 17-34)
Inhibition of Kv1.3 channel currents (Kv1.3 channel; 10 nM peptide, whole-cell patch clamp, HEK293): more than 50% | IC50 (Kv1.3 channel; whole-cell patch clamp, HEK293 transfected with mouse Kv1.3, 22-25°C, Hill fit, at least five concentrations, mean ± S.E. of at least three experiments, read-out: IC50 for inhibiting Kv1.3 channel current): 7.3 ± 1.8 nM | Effect on Kv11.1 channel currents (Kv11.1): much less of an effect

BmKTX-19/K6A: alanyl mutant of BmKTX-19 at Lys6 (VGINVACKHSGQCLKPCKKAGMRFGKCINGKCDCTPKG; ends and bridges not checked; cysteine pairing not given here)
Impact on the inhibitory potency of BmKTX-19 on Kv1.3 (Kv1.3 channel; alanine-scanning mutagenesis, alanyl mutants of BmKTX-19, compared with the Lys8, His9 and Lys15 substitutions): much less of an impact

BmKTX-196/H9A: alanyl mutant of BmKTX-196 at His9 (VGINVDCKASGQCLKPCKKAGMRFGKCINGKCDCTPKG; ends and bridges not checked; cysteine pairing not given here)
Reduction of the affinity of BmKTX-196 for the Kv1.3 channel (Kv1.3 channel; alanine-scanning mutagenesis): 3 fold

BmKTX-196/K8A: alanyl mutant of BmKTX-196 at Lys8 (VGINVDCAHSGQCLKPCKKAGMRFGKCINGKCDCTPKG; ends and bridges not checked; cysteine pairing not given here)
Reduction of the affinity of BmKTX-196 for the Kv1.3 channel (Kv1.3 channel; alanine-scanning mutagenesis): 68 fold
